Values quoted from earlier work, collected in patent US10934283B2, “COMT inhibiting methods and compositions” (LIEBER INSTITUTE FOR BRAIN DEVELOPMENT, priority 2015, dated 2021).

How the values were obtained:
[1] = clinical use; Olanow and Watkins 2007; cited from earlier work
[2] = Russ, et al. 1999; cited from earlier work

In the case of `Cc1ccc(C(=O)c2cc(O)c(O)c([N+](=O)[O-])c2)cc1` [tolcapone], the liver injury [1] is given as “serious liver injury, including three deaths” and the brain penetration [2] is given as “low but measurable”.
